This note sets out measurements from US20070078127A1, “Control of arthropods in animals” (AVENTIS CROPSCIENCE S.A., priority 1999, published 2007).

Series [1] concerns cat fleas (Ctenocephalides felis). Nature of the series: control of flea on dog. In kind it is in vivo. The settings on record: dogs, 10 mg/kg, 30 mg/mL in 1:1 dimethyl sulfoxide/corn oil; counts versus placebo at 1, 9, 16, 23, 30 days; satisfactory in any of the three areas, for a period ranging from eight to thirty days. An excerpt:
(§1) Cats are only infested with fleas.

Series [2] deals with ticks (Rhipicephalus sanguineus). Nature of the series: control of tick on dog. The format is in vivo. The settings on record: dogs, 10 mg/kg, 30 mg/mL in 1:1 dimethyl sulfoxide/corn oil; counts versus placebo at 1, 9, 16, 23, 30 days; satisfactory in any of the three areas, for a period ranging from eight to thirty days.
Description: as §1

Series [3] deals with cat fleas (Ctenocephalides felis). The series is described as follows: control of flea on cat. The settings on record: cats, 20 mg/kg, 30 mg/mL in 1:1 dimethyl sulfoxide/corn oil; counts versus placebo at 1, 9, 16, 23, 30 days; satisfactory in any of the three areas, for a period ranging from eight to thirty days. In kind it is in vivo.
Description: as §1

Series [4] in a line: side-effects in treated dogs and cats. The settings on record: dogs 10 mg/kg, cats 20 mg/kg; period ranging from eight to thirty days.
Description: The compounds 1-(2,6-dichloro-4-trifluoromethylphenyl)-3-cyano-4-trifluromethylthio-5-hydroxypyrazole, 1-(2,6-dichloro-4-trifluoromethylphenyl)-3-cyano-4-trifluoromethylsulfinyl-5-hydroxypyrazole and 1-(2,6-dichloro-4-trifluoromethylphenyl)-3-cyano-4-trifluoromethylsulfonyl-5-hydroxypyrazole are formulated as 30 mg/mL formulations in a 1:1 volume/volume solution of dimethyl sulfoxide and corn oil. Using this formulation, mixed breed dogs and cats are treated at a rate of 10 mg of the compound per kg (mg/kg)of body weight of the dog and 20 mg/kg of the cat treated. The animals are fasted for at least 8 hours prior to treatment, fed half of the daily ration immediately prior to treatment, then allowed access to the remainder of the daily ration immediately following treatment.
All dogs are infested with cat fleas (Ctenocephalides felis) and with ticks (Rhipicephalus sanguineus) 1 day prior to administration of the compound. Cats are only infested with fleas. […] At 1, 9, 16, 23 and 30 days after treatment the control of fleas and ticks in treated dogs and cats is determined versus a group of infested dogs and cats which receive a placebo consisting of a 1:1 volume/volume solution of dimethyl sulfoxide and corn oil. To determine the efficacies of the compounds, the arthropods are combed from the animnals and counted.

As for `CC(C)(C)C(=O)Oc1c(SC(F)(F)F)c(C#N)nn1-c1c(Cl)cc(C(F)(F)F)cc1Cl` [Compound 3-10, 1-(2,6-dichloro-4-trifluoromethylphenyl)-3-cyano-4-trifluoromethylsulfenyl-5-trimethylacetoxypyrazole], the “control of flea on dog” value in series [1] is reported as “Satisfactory results”. The “control of tick on dog” value in series [2] was “Satisfactory results”. The “control of flea on cat” value in series [3] is given as “Satisfactory results”.

In the case of `N#Cc1nn(-c2c(Cl)cc(C(F)(F)F)cc2Cl)c(O)c1SC(F)(F)Cl` [Compound 1-9, 1-(2,6-dichloro-4-trifluoromethylphenyl)-3-cyano-4-chlorodifluoromethylsulfenyl-5-hydroxypyrazole], the “control of flea on dog” value in series [1] is given as “Satisfactory results”. The “control of tick on dog” value in series [2] was “Satisfactory results”. Moreover, in series [3], the “control of flea on cat” value is “Satisfactory results”. Also, the side-effect entry in series [4] is recorded as “without any significant side-effect”.

As for `N#Cc1nn(-c2c(Cl)cc(C(F)(F)F)cc2Cl)c(O)c1[S+]([O-])C(F)(F)F` (centres unmarked) [Compound 1-3, 1-(2,6-dichloro-4-trifluoromethylphenyl)-3-cyano-4-trifluoromethylsulfinyl-5-hydroxypyrazole], in series [1], the “control of flea on dog” value is given as “Satisfactory results”. In series [2], the “control of tick on dog” value is on record as “Satisfactory results”. Further, the “control of flea on cat” value in series [3] is reported as “Satisfactory results”.

As to `N#Cc1nn(-c2c(Cl)cc(C(F)(F)F)cc2Cl)c(O)c1SC(F)(F)F` [Compound 1-1, 1-(2,6-dichloro-4-trifluoromethylphenyl)-3-cyano-4-trifluoromethylsulfenyl-5-hydroxypyrazole], the “control of flea on dog” value in series [1] is on record as “Satisfactory results”. Further, the “control of tick on dog” value in series [2] is listed as “Satisfactory results”. In series [3], the “control of flea on cat” value is given as “Satisfactory results”.

As for `N#Cc1nn(-c2c(Cl)cc(C(F)(F)F)cc2Cl)c(O)c1S(=O)(=O)C(F)(F)F` [Compound 1-5, 1-(2,6-dichloro-4-trifluoromethylphenyl)-3-cyano-4-trifluoromethylsulfonyl-5-hydroxypyrazole], the “control of flea on dog” value in series [1] is given as “Satisfactory results”. The “control of tick on dog” value in series [2] is on record as “Satisfactory results”. In addition, in series [3], the “control of flea on cat” value is “Satisfactory results”.

Turning to `CN(C)C(=O)Oc1c(S(=O)(=O)C(F)(F)F)c(C#N)nn1-c1c(Cl)cc(C(F)(F)F)cc1Cl` [Compound 19-1, 1-(2,6-dichloro-4-trifluorometylphenyl) -3-cyano-4-trifluormethylsulfonyl-5-N,N-dimethylcarbamyloxypyrazole], the “control of flea on dog” value in series [1] is “Satisfactory results”. Besides, the “control of tick on dog” value in series [2] is on record as “Satisfactory results”. The “control of flea on cat” value in series [3] was “Satisfactory results”. In addition, in series [4], the side-effect result is recorded as “without any significant side-effect”.

In the case of `CCOc1c(SC(F)(F)F)c(C#N)nn1-c1c(Cl)cc(C(F)(F)F)cc1Cl` [Compound 3-1, 1-(2,6-dichloro-4-trifluoromethylphenyl)-3-cyano-4-trifluoromethylsulfenyl-5-ethoxypyrazole], in series [1], the “control of flea on dog” value was “Satisfactory results”. Also, the “control of tick on dog” value in series [2] is reported as “Satisfactory results”. The “control of flea on cat” value in series [3] is “Satisfactory results”.
